The target in one series is T1, human IL-23R (Homo sapiens, UniProt Q5VWK5).
T1 sequence (Q5VWK5 22-629): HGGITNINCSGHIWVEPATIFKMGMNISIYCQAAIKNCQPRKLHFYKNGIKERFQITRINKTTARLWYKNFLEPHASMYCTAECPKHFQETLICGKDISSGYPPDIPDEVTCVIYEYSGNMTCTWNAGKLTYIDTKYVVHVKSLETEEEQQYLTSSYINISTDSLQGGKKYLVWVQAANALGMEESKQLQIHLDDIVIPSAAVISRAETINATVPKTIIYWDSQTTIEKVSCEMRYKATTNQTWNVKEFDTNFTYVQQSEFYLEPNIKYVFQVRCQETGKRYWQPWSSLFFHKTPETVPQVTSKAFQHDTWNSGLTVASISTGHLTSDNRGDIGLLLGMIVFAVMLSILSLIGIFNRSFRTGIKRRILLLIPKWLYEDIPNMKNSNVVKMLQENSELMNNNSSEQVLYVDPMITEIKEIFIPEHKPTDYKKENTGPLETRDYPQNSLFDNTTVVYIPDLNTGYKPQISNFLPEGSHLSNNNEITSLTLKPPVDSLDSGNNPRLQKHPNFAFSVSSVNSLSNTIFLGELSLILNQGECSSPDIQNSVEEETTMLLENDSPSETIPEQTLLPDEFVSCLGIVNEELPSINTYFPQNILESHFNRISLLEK
Nature of the series: biochemical. The procedure, abridged: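 Membranes from HEK293 cells stably expressing Nluc-tagged human IL-23R were incubated 2 h at room temperature with test compound and a fluorophore-labelled tracer. After substrate addition, loss of BRET (TAMRA over luciferase emission) reported tracer displacement. A 4PL fit gave IC50 values.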

Series [1] concerns the target IL-23 mediated signalling (Homo sapiens, UniProt Q5VWK5). Nature of the series: Functional inhibition of IL-23 mediated STAT3 signalling (phospho-STAT3 MSD) in DB cells. The following applies: for Emax: read-out: hIL-23 (pSTAT3) antagonist % inhibition. Type of series: cell-based. The procedure, abridged:
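DB cells preincubated with inhibitor 15 min at 37 °C, then stimulated 90 min with EC80 human IL-23; lysate phospho-STAT3 measured by MSD electrochemiluminescence. Signal normalized to IL-23-alone and buffer controls; IC50 and maximal % inhibition from 4-parameter logistic fit.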

Series [2] can be described thus: Peptide stability in simulated intestinal fluid (SIF). Conditions: 37 °C, porcine pancreatin; for remaining at 1 h, 10 µM / remaining at 4 h, 10 µM: pig. Type of series: in vitro ADME. The procedure, abridged: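 Peptides were incubated at 37 °C with gentle shaking in pH 6.8 potassium phosphate SIF containing porcine pancreatin (10 g/L). Supernatants were analysed by LC-HRMS. Percent remaining at each timepoint, including 4 h, was calculated relative to time zero from absolute peak areas.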

The nature of series [3]: Peptide stability in simulated gastric fluid (SGF). The format is in vitro ADME. The following applies: 37 °C, porcine pepsin; for remaining at 1 h, 10 µM / remaining at 4 h, 10 µM: pig, simulated gastric fluid (SGF) with porcine pepsin (3.2 g/L); for remaining at 1 h, 10 µM: read-out: SGF (% remaining 1 h). The essentials: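 Peptide incubated at 37 °C with gentle shaking in SGF (NaCl, pH 1.2). Samples centrifuged, diluted and analysed by LC-HRMS; percent remaining at each timepoint from absolute peak areas relative to time zero, with 4 h as the reference point.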

Setting [4] is: Table 3-2, maximal inhibitory response, DB cells, hIL-23 at EC80.
Where [5] appears, read: SAR tables, % peptide remaining, pH 6.8, 4 h, read-out: SIF (% after 4 h).
Where [6] appears, read: pH 6.8, 4 h, read-out: SIF (% remaining 4 h).
Where [7] appears, read: pH 1.2, 10 µM, pH 1.2, 4 h, read-out: SGF (% remaining 4 h).
Where [8] appears, read: Table 3-2, DB cells, hIL-23 at EC80, read-out: hIL-23 (pSTAT3) antagonist IC50.
The mark [9] stands for this setting: SAR tables 2-1 to 2-7, DB cells, hIL-23 at EC80, read-out: IC50 (pSTAT3).

Each structure is given as a SMILES string. Read-outs that look alike come from different tables or passages of the source. *1 amine or outer side, *2 acyl side, *3 side chain or, on linkers, in order; H or OH if unused. Where a SMILES comes first, the peptide text is derived from it. Bridges are numbered along the chain shown (N, C = ends). [ ]: non-standard residue; d: D form. 2Nal = N[C@@H](Cc1ccc2ccccc2c1)C(=O)O; CH2COCH2 = O=C(C[*:1])C[*:2]; 3Amb = NCc1cccc(C(=O)O)c1

A word on the IC50: it is the concentration at which inhibition is half-maximal. A word on the Ki: it is a measure of affinity in units of concentration, obtained from inhibition or displacement.

On to `CC[C@H](C)[C@@H]1NC(=O)[C@@H]2CCCCNC(=O)CC[C@@H](C(=O)N[C@@H](CCN)C(=O)N[C@@H](Cc3cccnc3)C(=O)NC)NC(=O)[C@](C)(CC(C)C)NC(=O)[C@H](Cc3ccc4ccccc4c3)NC(=O)[C@H](Cc3ccc(OCCN)cc3)NC(=O)[C@H](CCC(=O)N2)NC(=O)[C@H](CCC(N)=O)NC(=O)[C@H](Cc2c[nH]c3ccccc23)NC(=O)[C@H](C(C)C)NC1=O` [Compound 60, K(1c)(6c)^†IVWQE(6c)[Y(2-aminoethoxy)][2-Nal][2-Me-Leu]E(1c)[Dab][3-(3-Pyridyl)-Ala]-[NHMe]], for which the “% displacement (hIL-23R NIuc)” value on human IL-23R came to 95%. Besides, at human IL-23R, the midpoint of inhibition, the IC50, lay at 0.049 nM. Further, the Emax in series [1] (setting [4]) stood at 101%. Also, the “SIF (% remaining 4 h)” value in series [2] (10 µM, pH 6.8, 4 h) is 71%. Besides, in series [2] (SAR tables, % peptide remaining, 10 µM, pH 6.8, 4 h), the “SIF (% after 4 h)” value was 71%. Also, the remaining at 1 h, 10 µM was 76% in series [2] (pH 6.8, 1 h) and 120% in series [3] (pH 1.2, 10 µM, pH 1.2, 1 h). Also, the remaining at 4 h, 10 µM in series [2] (setting [5]) is 71%; in series [3] (pH 1.2, SAR tables, % peptide remaining, 10 µM, pH 1.2, 4 h, read-out: SGF (% after 4 h)), 109%. In series [3] (SAR tables, % peptide remaining, 10 µM, pH 1.2, 4 h), the “SGF (% after 4 h)” value is 109%.
Turning to `CC(C)C[C@]1(C)NC(=O)[C@H](Cc2ccc3ccccc3c2)NC(=O)[C@H](Cc2ccc(OCCN)cc2)NC(=O)[C@@H]2CCNC(=O)CC[C@H](NC(=O)[C@H](CO)NC(=O)Cc3ccc(cc3)CNC(=O)CC[C@@H](C(=O)N[C@@H](CCN)C(=O)N[C@@H](Cc3cccnc3)C(N)=O)NC1=O)C(=O)N[C@@H](Cc1c[nH]c3ccccc13)C(=O)N[C@@H](CCC(N)=O)C(=O)N2` [Ref 122, [4-Aminomethyl-phenylacetyl](1c)*SE(2c)WQ[Dab](2c)[Y(2-aminoethoxy)][2-Nal][2-Me-Leu]E(1 c)[Dab][3-(3-Pyridyl)-Ala]-[NH2], reference compound], the “% displacement (hIL-23R NIuc)” value at human IL-23R turned out to be 97%. The IC50 came to 0.0066 nM at human IL-23R and 0.028 nM in series [1]. In addition, on human IL-23R, the Ki amounted to 0.00541 nM. Also, the Emax in series [1] (setting [4]) worked out at 99%. In addition, the remaining at 1 h, 10 µM in series [2] (pH 6.8, 1 h) is 73%; in series [3] (pH 1.2, 10 µM, pH 1.2, 1 h), 92%. In addition, the figures for the remaining at 4 h, 10 µM in series [2] (setting [6]) and in series [3] (setting [7]) were 25% and 90%, respectively.
For the molecule `CC(C)C[C@@H]1NC(=O)[C@H](Cc2ccc3ccccc3c2)NC(=O)[C@H](Cc2c[nH]c3ccccc23)NC(=O)[C@@H]2CSCC(=O)CSC[C@H](NC(=O)[C@H](CO)NC(=O)c3cccc(c3)CNC(=O)CC[C@@H](C(=O)N[C@@H](CCCNC(=N)N)C(N)=O)NC1=O)C(=O)N[C@@H](Cc1c[nH]c3ccccc13)C(=O)N[C@@H](CCC(N)=O)C(=O)N2` [Ref 37, [(3-Aminomethyl)benzoyl](1c)*SC(2a)WQC(2a)W[2-Nal]LE(1c)R-[NH2], reference compound] ([3Amb]SCWQCW[2Nal]LER-NH2; linker 3-6 via CH2COCH2; lactam N-10), the “% displacement (hIL-23R NIuc)” value on human IL-23R worked out at 103%. For the same molecule, the IC50 was 12 nM against human IL-23R and 45 nM in series [1] (setting [8]). This molecule yielded an inhibition constant Ki at human IL-23R of 9.87 nM. Moreover, the Emax in series [1] (setting [4]) was found to be 89%. Besides, the remaining at 1 h, 10 µM is 0% in series [2] (pH 6.8, 1 h) and 2% in series [3] (pH 1.2, 10 µM, pH 1.2, 1 h). Also, the remaining at 4 h, 10 µM in series [2] (setting [6]) is 0%; in series [3] (setting [7]) it was 1%.
As for `CC(=O)N[C@@H](CC(=O)O)C(=O)N[C@H]1CCC(=O)NCCCC[C@@H](C(=O)N[C@@H](CCCNC(=N)N)C(N)=O)NC(=O)[C@H](CC(C)C)NC(=O)[C@H](Cc2ccc3ccccc3c2)NC(=O)[C@H](Cc2c[nH]c3ccccc23)NC(=O)[C@@H]2CSCC(=O)CSC[C@H](NC(=O)[C@H](CO)NC1=O)C(=O)N[C@@H](Cc1c[nH]c3ccccc13)C(=O)N[C@@H](CCC(N)=O)C(=O)N2` [Ref 17, [Ac]-DE(1c)SC(2a)WQC(2a)W[2-Nal]LK(1c)R-[NH2], reference compound], the IC50 on human IL-23R is 87 nM; in series [1] (setting [8]) it was 370 nM. In addition, at human IL-23R, the Ki turned out to be 70.7 nM. Further, the remaining at 1 h, 10 µM in series [2] (pH 6.8, 1 h) is 0%; in series [3] (pH 1.2, 10 µM, pH 1.2, 1 h), 0%. Also, the remaining at 4 h, 10 µM in series [2] (setting [6]) and in series [3] (setting [7]) was 0% throughout.
On to `CNC(=O)[C@H](Cc1cccnc1)NC(=O)[C@H](CCN)NC(=O)[C@@H]1CCC(=O)NCCCC[C@H]2CC(=O)NCC(=O)N[C@@H](Cc3c[nH]c4ccccc34)C(=O)N[C@@H](CCC(N)=O)C(=O)N[C@@H](CCC(=O)N2)C(=O)N[C@@H](Cc2ccc(OCCN)cc2)C(=O)N[C@@H](Cc2ccc3ccccc3c2)C(=O)N[C@@](C)(CC(C)C)C(=O)N1` [Compound 99, [beta-hLys](1c)(6c)^†GWQE(6c)[Y(2-aminoethoxy)][2-Nal][2-Me-Leu]E(1c)[Dab][3-(3-Pyridyl)-Ala]-[NHMe]], for which the values for the IC50 (against human IL-23R; in series [1] (setting [9])) were 0.024 nM and 0.014 nM, respectively. In addition, the figures for the Emax (on human IL-23R (read-out: % displacement (hIL-23R NIuc)); in series [1] (setting [4])) were 101% and 100%, respectively. The “SIF (% remaining 4 h)” value in series [2] (10 µM, pH 6.8, 4 h) is on record as 42%. Moreover, the remaining at 1 h, 10 µM in series [2] (pH 6.8, 1 h) is 74%; in series [3] (pH 1.2, 10 µM, pH 1.2, 1 h), 104%. Also, the remaining at 4 h, 10 µM was 42% in series [2] (setting [5]) and 101% in series [3] (setting [7]).
Regarding `CNC(=O)[C@H](Cc1cccnc1)NC(=O)[C@H](CCN)NC(=O)[C@@H]1CCC(=O)NCCCC[C@@H]2NC(=O)CC[C@H](NC(=O)[C@H](CCC(N)=O)NC(=O)[C@H](Cc3c[nH]c4ccccc34)NC(=O)CNC2=O)C(=O)N[C@@H](Cc2ccc(OCCN)cc2)C(=O)N[C@@H](Cc2ccc3ccccc3c2)C(=O)N[C@@](C)(CC(C)C)C(=O)N1` [Compound 44, K(1c)(6c)^†GWQE(6c)[Y(2-aminoethoxy)][2-Nal][2-Me-Leu]E(1c)[Dab][3-(3-Pyridyl)-Ala]-[NHMe]], the “% displacement (hIL-23R NIuc)” value on human IL-23R was 100%. Also, the IC50 against human IL-23R came out at 4 nM; in series [1] (setting [9]), 15 nM. Further, in series [1] (setting [4]), the Emax turned out to be 100%. Moreover, the “SIF (% remaining 4 h)” value in series [2] (10 µM, pH 6.8, 4 h) was 5%. Besides, the remaining at 1 h, 10 µM in series [2] (pH 6.8, 1 h) was 77%; in series [3] (pH 1.2, 10 µM, pH 1.2, 1 h), 100%. Further, the remaining at 4 h, 10 µM is 5% in series [2] (setting [5]) and 101% in series [3] (setting [7]).
Consider `CC(C)C[C@@H]1NC(=O)[C@H](Cc2c[nH]c3ccccc23)NC(=O)[C@H](Cc2c[nH]c3ccccc23)NC(=O)[C@@H]2CSCC(=O)CSC[C@H](NC(=O)[C@H]([C@@H](C)O)NC(=O)[C@@H](NC(=O)CN)CSCC(=O)CSC[C@@H](C(=O)N[C@@H](CO)C(N)=O)NC1=O)C(=O)N[C@@H](Cc1c[nH]c3ccccc13)C(=O)N[C@@H](CCC(=O)O)C(=O)N2` (single isomer, unassigned) [I1 (isomer 3), H-GC(1a)TC(2a)WEC(2a)WWLC(1a)S-[NH2], reference compound], for which the figures for the 50% inhibitory concentration (IC50) (at human IL-23R; in series [1]) were 130 nM and greater than 1000 nM, respectively. Moreover, the affinity on human IL-23R, expressed as Ki, was 104 nM. Also, in series [1] (DB), the Emax was 83%. In addition, the “SIF (% remaining 1 h)” value in series [2] (10 µM, pH 6.8, 1 h) is on record as 0%. The “SIF (% remaining 4 h)” value in series [2] (10 µM, pH 6.8, 4 h) is 0%. Besides, the “SGF (% remaining 1 h)” value in series [3] (10 µM, pH 1.2, 1 h) was 92%. Also, in series [3] (10 µM, pH 1.2, 4 h), the “SGF (% remaining 4 h)” value was 94%.

(Values after patent EP4471048A1, “PEPTIDE INHIBITORS OF INTERLEUKIN-23 RECEPTOR” (Zealand Pharma A/S, priority 2023, dated 2024).)
